Earlier results as cited in patent US6022703A, “Expression of DNA sequences derived from nocardioform microorganisms” (Genzyme Corporation, priority 1993, dated 2000).

System: Nocardioform cholesterol oxidase
Conditions: at 25°

Km: 14 µM
Compound: CC(C)CCC[C@@H](C)[C@H]1CC[C@H]2[C@@H]3CC=C4C[C@@H](O)CC[C@]4(C)[C@H]3CC[C@]12C [cholesterol]
